# Test results taken from US20110230472A1, “RING-FUSED AZOLE DERIVATIVE HAVING PI3K-INHIBITING ACTIVITY” (Shionogi & Co., Ltd., priority 2008, published 2011).
# Tests used:
# PI-3 kinase γ = PI-3 kinase γ (Homo sapiens, UniProt P48736); test: PI3Kγ inhibitory activity, PI3-kinase HTRF assay (inhibition ratio); assay type: biochemical; settings: 0.5 h; for inhibition at 50 µM: compound at 50 μM
# Procedure, shortened: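 PI3Kγ preincubated 10 min with compound and PIP2 substrate (MgCl2, DTT), then ATP added for 30 min at room temperature. PIP3 detected by HTRF (665/620 nm ratio) after 18 h. Inhibition ratio at 50 or 10 μmol/L, normalised to no-compound and no-enzyme controls.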
# Solubility test = assay type: physicochemical; settings: kinetic from dmso stock; artificial intestinal juice pH 6.8, 1% DMSO, 25° C. for 16 hours
# Experimental: The solubility of a compound was determined under a condition in which 1% DMSO was added. 10 mmol/L compound solution was prepared using DMSO, and then 6 μL of the compound solution was added to 594 μL of artificial intestinal juice in pH 6.8 (to 250 mL of 0.2 mol/L potassium dihydrogen phosphate reagent solution was added 118 mL of 0.2 mol/L NaOH reagent solution and water to provide a final volume of 1000 mL). After standing at 25° C. for 16 hours, the mixed solution was filtered with suction. The filtrate was diluted twice with methanol/water (1/1), and then a concentration in the filtration was measured with HPLC or LC/MS/MS by the absolute calibration method.
# CYP2D6 = molecular target: T1, CYP2D6 (Homo sapiens, UniProt P10635); test: CYP inhibition test, pooled human liver microsome, CYP2D6; assay type: in vitro ADME; settings: O-demethylation of dextromethorphan
# T1 construct: enzyme: pooled human liver microsome 0.2 mg protein/mL; from tissue; host or cells: pooled human liver microsome
# Source text: (§1) O-de-ethylation of 7-ethoxyresorufin (CYP1A2), methyl-hydroxylation of tolbutamide (CYP2C9), 4′-hydroxylation of mephenyloin (CYP2C19), O-demethylation of dextromethorphan (CYP2D6), and hydroxylation of terfenadine (CYP3A4), which are typical substrate for metabolic reactions of human main CYP5 molecular species (CYP1A2, 2C9, 2C19, 2D6, and 3A4), were adopted as indexes.
# (§2) The reaction conditions are as follows: substrate: 0.5 μmol/L of ethoxyresorufin (CYP1A2), 100 μmol/L of tolbutamide (CYP2C9), […] of S-mephenyloin (CYP2C19), 5 μmol/L of dextromethorphan (CYP2D6), and 1 μmol/L of terfenadine (CYP3A4); reaction time; 15 minutes; reaction temperature: 37° C.; enzyme: pooled human liver microsome 0.2 mg protein/mL; test drug concentration: 1, 5, 10, and 20 μmol/L (4 points).
# (§3) In a 96-well plate, as a reaction solution, five kinds of substrates, a human liver microsome, and a test drug were added to 50 mmol/L Hepes buffer solution in the aforementioned ratio. A coenzyme NADPH was added to start a metabolic reaction, which is an index. After reacting at 37° C. for 15 minutes, a solution of methanol/acetonitrile (1/1 (v/v)) was added to quench the reaction. After centrifugation at 3000 rpm for 15 minutes, resorufin (CYP1A2 metabolite) in the supernatant was quantitated with a fluorescence multilabel counter, and hydroxylated tolbutamide (CYP2C9 metabolite), 4′-hydroxylated mephenyloin (CYP2C19 metabolite), […], terfenadine in alcohol form (CYP3A4 metabolite) were quantitated with LC/MS/MS.
# (§4) The case wherein only DMSO (a solvent which dissolved a drug) was added to a reaction system was defined as a control (100%). When a test drug solution was added, the remaining activity (%) at each concentration was calculated, and then IC50 was calculated with a concentration and an inhibition ratio by an inverse estimation using a logistic model.
# CYP2C19 = molecular target: T2, CYP2C19 (Homo sapiens, UniProt P33261); test: CYP inhibition test, pooled human liver microsome, CYP2C19; assay type: in vitro ADME; settings: 4′-hydroxylation of mephenyloin
# T2 construct: enzyme: pooled human liver microsome 0.2 mg protein/mL; from tissue; host or cells: pooled human liver microsome
# Source text: as §1, §2, §3, §4
# Metabolic stability test = assay type: in vitro ADME; settings: human liver microsome 0.5 mg protein/mL, 1 mmol/L NADPH, 37° C.
# Experimental: After a subject compound was reacted for a certain time using a pooled human liver microsome commercially available, a reacted sample and an unreacted sample are compared to calculate a survival ratio, and then the degree of metabolism in the liver was evaluated.
# 0.2 mL of a buffer solution (50 mmol/L of Tris-HCl in pH 7.4, 150 mmol/L of potassium chloride, and 10 mmol/L of magnesium chloride) containing a human liver microsome of 0.5 mg protein/mL was reacted in the presence of 1 mmol/L NADPH at 37° C. for 0 or 30 minutes (oxidative reaction). After reacting, 50 μL of the reaction solution was added to 100 μL of a solution of methanol/acetonitrile (1/1 (v/v)), mixed, and then centrifuged at 3000 rpm for 15 minutes. The test compound in the supernatant was quantitated with LC/MS/MS. The amount of the compound at a reaction time of 0 minute was defined as 100% and, based on that, the percentage of the test compound remained after reacting for 30 minutes was calculated.
# CYP3A4 = molecular target: T3, CYP3A4 (Homo sapiens, UniProt P08684); test: CYP inhibition test, pooled human liver microsome, CYP3A4; assay type: in vitro ADME; settings: hydroxylation of terfenadine
# T3 construct: enzyme: pooled human liver microsome 0.2 mg protein/mL; from tissue; host or cells: pooled human liver microsome
# Source text: as §1, §2, §3, §4
# CYP1A2 = molecular target: T4, CYP1A2 (Homo sapiens, UniProt P05177); test: CYP inhibition test, pooled human liver microsome, CYP1A2; assay type: in vitro ADME; settings: O-de-ethylation of 7-ethoxyresorufin
# T4 construct: enzyme: pooled human liver microsome 0.2 mg protein/mL; from tissue; host or cells: pooled human liver microsome
# T4 sequence (P05177 1-516): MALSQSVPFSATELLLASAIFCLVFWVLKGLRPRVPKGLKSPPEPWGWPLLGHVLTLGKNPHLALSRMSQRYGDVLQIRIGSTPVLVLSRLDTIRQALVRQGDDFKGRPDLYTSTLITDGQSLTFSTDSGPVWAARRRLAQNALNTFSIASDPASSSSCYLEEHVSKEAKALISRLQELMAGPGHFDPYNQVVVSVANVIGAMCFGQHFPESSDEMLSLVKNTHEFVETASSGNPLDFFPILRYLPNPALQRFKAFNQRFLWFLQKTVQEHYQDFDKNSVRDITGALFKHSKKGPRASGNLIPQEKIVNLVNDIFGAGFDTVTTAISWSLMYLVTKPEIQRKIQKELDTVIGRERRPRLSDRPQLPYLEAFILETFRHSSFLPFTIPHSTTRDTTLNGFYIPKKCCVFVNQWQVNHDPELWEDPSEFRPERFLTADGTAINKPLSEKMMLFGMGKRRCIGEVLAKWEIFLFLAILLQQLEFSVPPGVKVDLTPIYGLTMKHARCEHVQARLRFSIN
# Source text: as §1, §2, §3, §4
# CYP2C9 = molecular target: T5, CYP2C9 (Homo sapiens, UniProt P11712); test: CYP inhibition test, pooled human liver microsome, CYP2C9; assay type: in vitro ADME; settings: methyl-hydroxylation of tolbutamide
# T5 construct: enzyme: pooled human liver microsome 0.2 mg protein/mL; from tissue; host or cells: pooled human liver microsome
# Source text: as §1, §2, §3, §4
# 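For percentage of the test compound remained after reacting for 30 minutes in this document: 100% equals the compound amount at 0 min reaction.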
# Sequence of PI-3 kinase γ (P48736 whole entry): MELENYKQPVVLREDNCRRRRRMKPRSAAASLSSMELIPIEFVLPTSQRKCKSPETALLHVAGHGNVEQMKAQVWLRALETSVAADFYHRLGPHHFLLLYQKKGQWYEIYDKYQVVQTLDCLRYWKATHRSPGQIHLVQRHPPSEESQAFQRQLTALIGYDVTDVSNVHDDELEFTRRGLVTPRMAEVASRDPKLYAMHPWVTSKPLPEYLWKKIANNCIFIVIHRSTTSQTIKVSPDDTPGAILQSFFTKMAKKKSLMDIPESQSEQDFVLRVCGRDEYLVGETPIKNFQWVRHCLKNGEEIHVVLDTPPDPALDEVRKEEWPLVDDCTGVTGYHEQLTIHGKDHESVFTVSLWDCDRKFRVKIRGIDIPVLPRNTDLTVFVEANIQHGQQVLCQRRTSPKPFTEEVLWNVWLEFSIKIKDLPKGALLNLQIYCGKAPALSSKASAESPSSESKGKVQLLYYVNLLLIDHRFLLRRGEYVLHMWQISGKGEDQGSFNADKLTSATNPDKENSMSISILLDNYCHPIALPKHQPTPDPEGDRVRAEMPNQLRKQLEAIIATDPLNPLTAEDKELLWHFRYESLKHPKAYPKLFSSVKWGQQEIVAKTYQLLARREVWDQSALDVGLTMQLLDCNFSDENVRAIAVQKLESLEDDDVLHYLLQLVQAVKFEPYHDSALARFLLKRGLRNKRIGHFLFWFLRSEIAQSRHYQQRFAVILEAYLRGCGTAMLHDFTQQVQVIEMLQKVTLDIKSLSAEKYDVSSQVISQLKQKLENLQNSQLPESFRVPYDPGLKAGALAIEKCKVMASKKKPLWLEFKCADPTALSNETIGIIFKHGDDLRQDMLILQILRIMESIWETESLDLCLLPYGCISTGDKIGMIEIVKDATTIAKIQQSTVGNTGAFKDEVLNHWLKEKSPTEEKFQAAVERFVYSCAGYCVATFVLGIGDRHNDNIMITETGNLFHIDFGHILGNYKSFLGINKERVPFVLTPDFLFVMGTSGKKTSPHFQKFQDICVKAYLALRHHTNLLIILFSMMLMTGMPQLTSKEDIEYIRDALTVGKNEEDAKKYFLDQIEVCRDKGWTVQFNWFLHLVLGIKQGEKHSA
# T1 sequence (P10635 whole entry): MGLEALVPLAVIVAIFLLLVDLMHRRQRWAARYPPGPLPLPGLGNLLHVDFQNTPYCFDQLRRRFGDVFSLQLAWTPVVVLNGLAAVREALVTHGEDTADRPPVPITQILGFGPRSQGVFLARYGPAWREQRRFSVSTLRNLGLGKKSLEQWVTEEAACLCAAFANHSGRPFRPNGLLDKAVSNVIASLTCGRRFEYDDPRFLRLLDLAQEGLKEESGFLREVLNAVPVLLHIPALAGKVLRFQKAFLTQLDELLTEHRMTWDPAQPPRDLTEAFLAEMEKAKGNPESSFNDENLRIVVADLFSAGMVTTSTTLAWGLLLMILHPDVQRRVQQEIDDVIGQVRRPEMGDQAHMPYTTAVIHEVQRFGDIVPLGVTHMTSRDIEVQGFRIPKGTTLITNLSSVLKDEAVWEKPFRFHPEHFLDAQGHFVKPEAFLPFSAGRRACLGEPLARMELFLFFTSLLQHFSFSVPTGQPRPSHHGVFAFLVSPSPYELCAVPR
# T2 sequence (P33261 whole entry): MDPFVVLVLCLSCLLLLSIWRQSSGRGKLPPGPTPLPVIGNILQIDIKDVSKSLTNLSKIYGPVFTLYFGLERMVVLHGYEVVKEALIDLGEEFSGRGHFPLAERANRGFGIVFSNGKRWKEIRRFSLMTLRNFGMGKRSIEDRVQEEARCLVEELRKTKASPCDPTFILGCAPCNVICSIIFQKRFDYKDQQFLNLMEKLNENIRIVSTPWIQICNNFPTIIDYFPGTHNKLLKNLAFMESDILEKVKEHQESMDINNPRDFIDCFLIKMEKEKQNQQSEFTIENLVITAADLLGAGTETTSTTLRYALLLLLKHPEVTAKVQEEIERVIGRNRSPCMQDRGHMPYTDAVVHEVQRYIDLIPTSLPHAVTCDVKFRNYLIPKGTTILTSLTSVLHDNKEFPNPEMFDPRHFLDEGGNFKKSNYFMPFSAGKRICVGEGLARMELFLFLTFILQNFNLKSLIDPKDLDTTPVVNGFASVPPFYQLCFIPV
# T3 sequence (P08684 whole entry): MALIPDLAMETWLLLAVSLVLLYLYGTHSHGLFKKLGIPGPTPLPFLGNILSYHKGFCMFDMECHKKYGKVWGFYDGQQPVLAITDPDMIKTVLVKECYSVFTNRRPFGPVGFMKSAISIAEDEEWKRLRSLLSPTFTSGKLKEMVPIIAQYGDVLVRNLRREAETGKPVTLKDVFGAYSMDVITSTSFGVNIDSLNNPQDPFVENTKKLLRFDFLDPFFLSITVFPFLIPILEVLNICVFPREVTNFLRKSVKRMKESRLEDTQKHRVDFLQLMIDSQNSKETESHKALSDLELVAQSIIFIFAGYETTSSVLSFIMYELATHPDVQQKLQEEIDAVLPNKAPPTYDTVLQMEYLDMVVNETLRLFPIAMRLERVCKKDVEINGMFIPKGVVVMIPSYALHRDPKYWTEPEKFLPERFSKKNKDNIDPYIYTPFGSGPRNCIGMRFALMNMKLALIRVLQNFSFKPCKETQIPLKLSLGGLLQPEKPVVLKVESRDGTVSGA
# T5 sequence (P11712 whole entry): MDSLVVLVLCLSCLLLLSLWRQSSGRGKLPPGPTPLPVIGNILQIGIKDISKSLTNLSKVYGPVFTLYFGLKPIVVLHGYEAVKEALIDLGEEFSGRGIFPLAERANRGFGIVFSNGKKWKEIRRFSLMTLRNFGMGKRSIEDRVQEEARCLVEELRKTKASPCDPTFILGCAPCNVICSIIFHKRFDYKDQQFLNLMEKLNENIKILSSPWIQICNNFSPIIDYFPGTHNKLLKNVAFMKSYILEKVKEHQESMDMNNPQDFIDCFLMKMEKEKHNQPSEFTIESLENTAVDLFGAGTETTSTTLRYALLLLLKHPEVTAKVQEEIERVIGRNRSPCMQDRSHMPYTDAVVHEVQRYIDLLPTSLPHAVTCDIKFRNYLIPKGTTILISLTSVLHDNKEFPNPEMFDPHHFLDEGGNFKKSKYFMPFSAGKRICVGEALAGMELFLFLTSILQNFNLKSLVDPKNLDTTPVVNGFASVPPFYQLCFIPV
Compound,IC50 (CYP2D6) [µM],IC50 (CYP2C19) [µM],IC50 (CYP3A4) [µM],IC50 (CYP1A2) [µM],IC50 (CYP2C9) [µM],inhibition at 10 µM (PI-3 kinase γ; compound at 10 μmol/L) [%],further results
CNC(=O)Nc1cc2n(n1)CCN2c1cccc(OC)c1 [Compound I-61],,,,,,,inhibition at 50 µM (PI-3 kinase γ; PI3Kγ): ≥ 95%; solubility at 16 h (Solubility test): > 50 µM
CNC(=O)Nc1cc2n(n1)CCN2c1cc(Br)cc(C(=O)Nc2cccc(C(=O)O)c2)c1 [Compound I-187],> 20,> 20,> 20,> 20,> 20,,percentage of the test compound remained after reacting for 30 minutes (Metabolic stability test): 98.9%; inhibition at 50 µM (PI-3 kinase γ; PI3Kγ): 94%; solubility at 16 h (Solubility test): > 50 µM
CNC(=O)Nc1cc2n(n1)CCN2c1ccc(C(=O)O)s1 [Compound I-217],> 20,> 20,> 20,> 20,> 20,,inhibition at 50 µM (PI-3 kinase γ; PI3Kγ): ≥ 95%; solubility at 16 h (Solubility test): > 50 µM
CN(C)C(=O)CCC(=O)Nc1cc2n(n1)CCN2c1cccc(Cl)c1 [Compound I-234],> 20,> 20,> 20,> 20,> 20,,percentage of the test compound remained after reacting for 30 minutes (Metabolic stability test): 98.3%; inhibition at 50 µM (PI-3 kinase γ; PI3Kγ): ≥ 95%
COc1cc(N2CCc3nc(NC(=O)NCCC(=O)N4CCC[C@H]4C(=O)O)sc3C2)nc(OC)n1 [Compound I-276],> 20,> 20,> 20,> 20,> 20,,"percentage of the test compound remained after reacting for 30 minutes (Metabolic stability test): 90.1%; inhibition at 10 µM (PI-3 kinase γ; PI3Kγ, compound at 10 μM): ≥ 95%; solubility at 16 h (Solubility test): > 50 µM"
CC(=O)Nc1cc2n(n1)CCN2c1ccc2c(c1)CCCN2.Cl.Cl [Compound I-319],,,,,,≥ 95,solubility at 16 h (Solubility test): > 50 µM
CN1CCc2cc(N3CCn4nc(NC(=O)CC5CCNC5)cc43)ccc2C1=O.Cl.Cl (centres unmarked) [Compound I-356],> 20,> 20,> 20,> 20,> 20,≥ 95,solubility at 16 h (Solubility test): > 50 µM
CC(C)NC(=O)c1csc(C(=O)Nc2cc3n(n2)CCN3c2ccc3c(c2)CCN(C)C3=O)c1 [Compound I-402],> 20,> 20,> 20,> 20,> 20,91,
CC(C)NC(=O)c1ccc(C(=O)Nc2cc3n(n2)CCN3c2ccc3c(c2)CCN(C)C3=O)s1 [Compound I-407],> 20,> 20,> 20,> 20,> 20,≥ 95,percentage of the test compound remained after reacting for 30 minutes (Metabolic stability test): 92.9%
CN1CCc2cc(N3CCn4nc(NC(=O)c5ccc(C(=O)NCC#N)s5)cc43)ccc2C1=O [Compound I-409],> 20,> 20,> 20,> 20,> 20,≥ 95,percentage of the test compound remained after reacting for 30 minutes (Metabolic stability test): 92.2%
CN(C)C(=O)c1cc(C(=O)Nc2cc3n(n2)CCN3c2ccc3c(c2)CCN(C)C3=O)cs1 [Compound I-432],> 20,> 20,> 20,> 20,> 20,≥ 95,
CCCNS(=O)(=O)c1ccc(C(=O)Nc2cc3n(n2)CCN3c2ccc3c(c2)CCN(C)C3=O)cc1 [Compound I-526],,,,,,90,
CC(C)NS(=O)(=O)c1ccc(C(=O)Nc2cc3n(n2)CCN3c2ccc3c(c2)CCN(C)C3=O)cc1 [Compound I-527],,,,,,79,
COc1cc(N2CCc3nc(NC(=O)N4CC(C(=O)NC(C)C)C4)sc3C2)nc(OC)n1 [Compound I-528],,,,,,76,
COc1cc(N2CCc3nc(NC(=O)C4CN(C(=O)OC(C)(C)C)C4)sc3C2)nc(OC)n1 [Compound I-529],,,,,,82,
CN1CCc2cc(N3CCn4nc(NC(=O)NCCC(=O)OC(C)(C)C)cc43)ccc2C1=O [Compound I-530],,,,,,92,
CC(=O)Nc1ncc(C(=O)Nc2cc3n(n2)CCN3c2ccc3c(c2)CCN(C)C3=O)s1 [Compound I-531],,,,,,75,
CC(C)CC(=O)Nc1ncc(C(=O)Nc2cc3n(n2)CCN3c2ccc3c(c2)CCN(C)C3=O)s1 [Compound I-533],,,,,,95,
CC(C)CNC(=O)c1ccc(C(=O)Nc2cc3n(n2)CCN3c2ccc3c(c2)CCN(C)C3=O)cc1 [Compound I-534],,,,,,91,
CN1CCc2cc(N3CCn4nc(NC(=O)c5cnc(N6CCC[C@H]6C(=O)O)s5)cc43)ccc2C1=O [Compound I-536],,,,,,≥ 95,

# The next lines start with results.
IC50 (CYP2D6) [µM],IC50 (CYP2C19) [µM],IC50 (CYP3A4) [µM],IC50 (CYP1A2) [µM],IC50 (CYP2C9) [µM],inhibition at 10 µM (PI-3 kinase γ; compound at 10 μmol/L) [%],Compound,further results
,,,,,87,CN1CCc2cc(N3CCn4nc(NC(=O)NCCC(=O)O)cc43)ccc2C1=O [Compound I-537],
,,,,,94,CC(C)CCNC(=O)CCNC(=O)Nc1cc2n(n1)CCN2c1ccc2c(c1)CCN(C)C2=O [Compound I-538],
,,,,,≥ 95,CN(C)C(=O)Nc1cc2n(n1)CCN2c1ccc2c(c1)CCN(C)C2=O [Compound I-539],
,,,,,86,COc1cc(N2CCc3nc(NC(=O)NCC4(C(=O)NC(C)C)CC4)sc3C2)nc(OC)n1 [Compound I-546],
,,,,,≥ 95,COc1cc(N2CCc3nc(NC(=O)NCC(C)C(=O)NC(C)C)sc3C2)nc(OC)n1 (centres unmarked) [Compound I-547],
,,,,,≥ 95,COCCOc1ccc(C(=O)Nc2cc3n(n2)CCN3c2ccc3c(c2)CCN(C)C3=O)cc1 [Compound I-549],
,,,,,81,CC(C)NC(=O)c1ccccc1NC(=O)Nc1nc2c(s1)CN(C(=O)c1ccc(O)cc1)CC2 [Compound I-550],
,,,,,84,CC(C)CCOc1ccc(C(=O)Nc2cc3n(n2)CCN3c2ccc3c(c2)CCN(C)C3=O)cc1 [Compound I-551],
,,,,,88,COc1cc(N2CCc3nc(NC(=O)C4CCCCC4)sc3C2)nc(OC)n1 [Compound I-552],
,,,,,88,COc1nc(Cl)cc(N2CCc3nc(NC(=O)NCCC(=O)NC(C)C)sc3C2)n1 [Compound I-554],
